Test results taken from patent US5159114A, “ACAT inhibitory benzanilides” (Rhone-Poulenc Sante, priority 1989, dated 1992).

Columns and labels:
[1] = tested on: plasma cholesterol; test: In vivo inhibition of increases in plasma cholesterol concentrations in rats fed a cholesterol-supplemented diet; design: species or system rat; details: diet supplemented with cholesterol/cholic acid and 0.03% w/w test compound, after 3 days, relative to control animals fed cholesterol diet without drug
[2] = tested on: acyl coenzyme-A:cholesterol-O-acyl transferase (ACAT;EC 2.3.1.26); test: In vitro inhibition of ACAT in liver microsomes from cholesterol-fed rats, incubated with radiolabelled oleoyl-CoA; format: biochemical; details: 1 μg/ml, rat liver microsomes

With `CCCCCCCCCCOc1ccc(C(=O)Nc2cc(C(=O)NCCCC)ccc2SC)cc1` [B, N-(2-methylthio-5-butylaminocarbonyl)phenyl-4-decyloxybenzamide] the “In-vivo % Inhibition (of increases in plasma cholesterol concentrations)” value [1] was 92%.
For `CCCCCCCCCCOc1ccc(C(=O)Nc2cc(C(=O)NCCSC)ccc2SC)cc1` [C, N-[2-methylthio-5-(2-methylthioethylaminocarbonyl)]phenyl-4-decyloxybenzamide], the “In-vitro % Inhibition (degree of ACAT inhibition)” value (“In-vitro % Inhibition” for short) [2] was 98% and the “In-vivo % Inhibition (of increases in plasma cholesterol concentrations)” value [1] was 91%.
For `CCCCCCCCCCOc1ccc(C(=O)Nc2cc(C(=O)NCCOC)ccc2SC)cc1` [Compound A, N-[2-methylthio-5-(2-methoxyethylaminocarbonyl)]phenyl-4-decyloxybenzamide], the “In-vitro % Inhibition” value [2] was 82% and the “In-vivo % Inhibition (of increases in plasma cholesterol concentrations)” value [1] was 100%.
For `CCCCCCCCCCSc1ccc(C(=O)Nc2cc(C(=O)NCCSC)ccc2SC)cc1` [D, N-[2-methylthio-5-(2-methylthioethylaminocarbonyl)]phenyl-4-(decylthio)benzamide], the “In-vitro % Inhibition” value [2] was 94% and the “In-vivo % Inhibition (of increases in plasma cholesterol concentrations)” value [1] was 100%.
`CCCCCCCCCCOc1ccc(C(=O)Nc2cc(C(=O)NCCSC)ccc2OC)cc1` [E, N-[2-methoxy-5-(2-methylthioethylaminocarbonyl)]phenyl-4-decyloxybenzamide] was tested, and the “In-vitro % Inhibition” value [2] was 83%.
For `CCCCCCCCCOc1ccc(C(=O)Nc2cc(C(=O)NCCSC)ccc2OC)cc1` [F, N-[2-methoxy-5-(2-methylthioethylaminocarbonyl)]phenyl-4-nonyloxybenzamide], the “In-vitro % Inhibition” value [2] was 87%.
For `CCCCCCCCCCSc1ccc(C(=O)Nc2cc(C(=O)NCCCC)ccc2OC)cc1` [G, N-(2-methoxy-5-butylaminocarbonyl)phenyl-4-(decylthio)benzamide], the “In-vitro % Inhibition” value [2] was 91%.
